Experimental findings from patent US20010034352A1, “Piperidine-4 sulphonamide compounds” (priority 2000, published 2001) are described below.

Holding throughout (format): cell-based
The test system of assay [1] is thoracic aorta rings of a Wistar rat. The assay is described as follows: Vascular protective effects with respect to endothelial dysfunction induced by an inhibitor of NOS (LNA), ACh relaxation of aortic rings. The note with it: compound at 3×10^−9 M, LNA 3.10^−7 M, difference between percentages of maximum ACh relaxation in presence or absence of product. From the text: Under standard in vitro conditions, relaxation of aortic rings caused by acetylcholine (ACh), which relaxation is totally dependent upon the presence of endothelium, reflects the production of NO (stimulated by ACh), which by diffusing to smooth muscle cells brings about arterial relaxation (Nature, 1980, 288, 373).
the first model consists of inducing inhibition of the relaxation due to ACh by blocking the enzymatic activity (endothelial NOS) responsible for the production of NO.
Vascular Protective Effects with Respect to Endothelial Dysfunction Induced by an Inhibitor of NOS
The thoracic aorta of a Wistar rat (325-375 g), anaesthetised by the intraperitoneal route using sodium pentobarbital (30 mg/kg), is removed and dissected into rings of 3 mm in length. […]
After a 90-minute stabilisation period, the preparations are contracted using phenylephrine (PHE 10^−6 M) and relaxed by adding 10^−5 M of acetylcholine in order to verify the 10 integrity of the endothelial layer. […] The preparations are again contracted using phenylephrine and, after 30 minutes, the relaxations due to acetylcholine (ACh—10^−8M to 10^−5 M) are assessed in the presence of indomethacin (10^−5M).
(§1) The relaxation values are expressed as a percentage relative to the maximum contraction caused by PHE. […]

Assay [2] concerns aortic rings of New Zealand rabbits. Description: Vascular protective effects with respect to endothelial dysfunction induced by a system generating O2^− (XO-Hypo), ACh relaxation of aortic rings. The note with it: compound at 3×10^−9 M; rabbit aortic rings; XO 3 mU/ml, Hypo 10^−4 M; difference between percentages of maximum ACh relaxation in presence or absence of product. On the procedure:
the second model consists of inducing oxidative stress in vitro using an enzymatic system that generates O2^− (xanthine oxidase —XO and hypoxanthine—Hypo).
The thoracic aorta of a Wistar rat (325-375 g), anaesthetised by the intraperitoneal route using sodium pentobarbital (30 mg/kg), is removed and dissected into rings of 3 mm in length. Each ring is suspended from an isometric tension sensor connected to a recording system and the initial tension applied is 2.5 g. The physiological solution used, which is thermostatically maintained at 37° C., and oxygenated (95% O2+5% CO2), comprises (in mM): NaCl 112.0, KCl 5.0, CaCl2 2.5, KH2PO4 1.0, MgSO4 1.2, NaHCO3 25.0, glucose 11.5, Ca-EDTA 0.016.
After a 90-minute stabilisation period, the preparations are contracted using phenylephrine (PHE 10^−6 M) and relaxed by adding 10^−5 M of acetylcholine in order to verify the 10 integrity of the endothelial layer. If that is confirmed, the preparations are rinsed and a concentration of the test product (or its solvent) is added to the medium, followed by 3.10^−7 M of N^G-nitro-L-arginine (LNA). The preparations are again contracted using phenylephrine and, after 30 minutes, the relaxations due to acetylcholine (ACh—10^−8M to 10^−5 M) are assessed in the presence of indomethacin (10^−5M).
as §1

The subject of another assay is cGMP in rat aortic rings. Description: Assessment of aortic production of cGMP stimulated by ACh in the presence of LNA (radioimmunoassay). As to conditions: compound at 3×10^−9 M, 30-minute incubation, ACh 10^−5 M 1 minute, LNA 3×10^−6 M, isobutylmethylxanthine 10^−5 M. On the procedure:
Involvement of the NO Route in the Vascular Protective Effects Detected: Assessment of Aortic Production of cGMP
By diffusing to the smooth muscle cells, the NO produced by the endothelial cells activates soluble guanylate cyclase, which brings about an increase in cyclic GMP which is responsible for relaxation.
The rat aortic rings are prepared as previously. Assessment is made of the effects of a 30-minute incubation of the compounds of the invention at different concentrations on the production of cGMP stimulated by ACh (10^−5 M—1 minute) in the presence of LNA (3×10^−6 M). The experiments are carried out in the presence of isobutylmethylxanthine (10^−5 M) in order to avoid degradation of the cGMP by phosphodiesterases. The rings are frozen in liquid nitrogen and maintained at −80° C. until the assay is carried out. The cGMP content is assessed by radioimmunoassay and expressed in relation to the amount of protein contained in the tissue (assay by the Bradford method).

`O=S(=O)(NC1CCN(CCc2coc3ccccc23)CC1)c1cccc2cnccc12` [Example 8, N-{1-[2-(Benzofuran-3-yl)ethyl]-4-piperidyl}-5-isoquinolinesulphonamide]: the “inhibition of the endothelial dysfunction induced by LNA” value in assay [1] was 23%. The “inhibition of the endothelial dysfunction induced by the XO-Hypo combination” value in assay [2] turned out to be 28.3%. In the assay with cGMP in rat aortic rings, the “increase of the production of cGMP stimulated by ACh in the presence of LNA” value is 142.7%.
